{
  "source": "paper PMC11770821",
  "about": "“Pharmacokinetics and pharmacodynamics of an innovative psychedelic N,N-dimethyltryptamine/harmine formulation in healthy participants: a randomized controlled trial” (International Journal of Neuropsychopharmacology, 2025)",
  "experiment": "Plasma pharmacokinetics of DMT, harmine and their metabolites (non-compartmental analysis)",
  "settings": "DMT + harmine condition, mean (SD)",
  "description": "The study was conducted as a within-subject, double-blind, randomized placebo-controlled trial. Randomization was performed by an independent individual using a computer-generated random number sequence. All participants underwent 3 randomized drug treatments on separate study days, with an intervening washout period of at least 2 weeks: (1) DMT/HAR: harmine hydrochloride (HCl; 100 mg; buccal orodispersible tablet; ODT) plus DMT (as hemifumarate; 100 mg; intranasal: 10 mg every 15 minutes over 150 minutes), (2) HAR/PLA: harmine (100 mg, buccal ODT) plus placebo nasal spray (NaCl; at same dosing intervals), and (3) PLA/PLA: placebo buccal ODT plus placebo nasal spray. In all conditions, buccal tablets were premedicated for 30 minutes. Food or water intake was not allowed 2 hours before drug administration.\nThirty minutes following buccal premedication with harmine HCl (100 mg) or placebo, the intranasal repeated-intermittent administration of DMT or placebo was initiated. Volunteers received up to 100 mg DMT in 10 mg dosing steps each 15 minutes (2 × 2 puffs per nostril) over a period of 150 minutes (except for a 30-minute break between 60 and 90 minutes due to a behavioral task). […] Volunteers could adjust each dose (0, 5, 10 mg) based on tolerance, with encouragement to follow the regimen if no adverse effects (AEs) occurred. Thus, volunteers were given the chance to control the psychedelic strength of the experience to enhance safety and tolerability.\nBlood samples were collected from the left or right antecubital vein at −30 (baseline), 0, 30, 60, 90, 120, 150, 180, 195, 210, 240, 270, and 300 minutes after first DMT/placebo administration for analysis of blood plasma levels of harmine, DMT, the 3 major DMT metabolites 3-IAA, DMT-N-oxide, and NMT and the major harmine metabolite harmol. While DMT administration was ongoing, blood drawing was always performed right before DMT administration (time point -1 minute). The venous catheter was connected to a 100 mm Heidelberger plastic tube extension to collect blood samples without disturbing the volunteers during their psychedelic experience. The intravenous line was kept patent with a slow drip (10 mL/h) of heparinized saline (1000 IU heparin in 0.9 g NaCl/dL; HEPARIN Bichsel; Bichsel AG). Blood samples were immediately centrifuged for 10 minutes at 2000 RCF. Then, plasma was transferred to Eppendorf tubes, shock-frosted in liquid nitrogen (~ −196 °C) and stored at −80 °C until assay.\nThe data were analyzed and visualized with R Studio version 2021.09.2 + 382.[36] PK-PD parameters were computed using the R-package PKNCA.[37] For Cmax, tmax, AUCs (area under the curves), and half-life calculations, non-compartmental analyses were performed.[38] […] Post hoc pairwise comparisons were calculated using paired Wilcoxon signed-rank tests. P-values were adjusted using the Benjamini-Hochberg multiple testing correction method. Pearson or Spearman correlations were performed (as appropriate according to Shapiro-Wilk tests) to analyze associations between DMT plasma levels and subjective effects.\nFor the sample preparation 200 µl of plasma were spiked with 50 µl internal standard (IS) mixture (40 ng/ml DMT-d6 and harmine-d3) and 50 µl methanol (MeOH). Proteins were precipitated by adding 400 µl of acetonitrile (ACN). The samples were shaken for 10 minutes and centrifuged for 5 min at 10‘000 rpm. 350 µl of the supernatant was transferred into an auto-sampler vial, evaporated to dryness under a gentle stream of nitrogen at room temperature and reconstituted in 100 µl eluent-mixture (98:2, v/v).",
  "data": [
    {"compound": "C[N+](C)([O-])CCc1c[nH]c2ccccc12", "note": "[DMT-N-oxide]", "values": [
      {"measurement": "t1/2", "setting": "plasma elimination half-life", "value": "1.2 (0.4) h"},
      {"measurement": "AUCinf", "setting": "plasma, time zero to infinity", "value": "69.2 (22.1) ng × h/mL"}
    ]}
  ]
}
